The results in this text go back to patent US11959086B2, “Dual transit peptides for targeting polypeptides” (BASF AGRO B.V., priority 2016, dated 2024).

Assay in all cases: Herbicide injury evaluation of Arabidopsis plants, greenhouse
Common to all, as to assay type: in vivo

For assay [1], the system named is transgenic Arabidopsis thaliana, transgene SEQ ID NO 121. The following applies: Table 3, scale 0-100.
Assay [2] concerns transgenic Arabidopsis thaliana, transgene SEQ ID NO 128. The settings on record: Table 3, scale 0-100.
The test system of assay [3] is transgenic Arabidopsis thaliana, transgene SEQ ID NO 118. The following applies: scale 0-100.
For assay [4], the system named is Wildtype/non-transgenic Arabidopsis thaliana. The following applies: scale 0-100.
In assay [5] the test system is transgenic Arabidopsis thaliana, transgene SEQ ID NO 117. The settings on record: Table 3, scale 0-100.
Assay [6] has as its system transgenic Arabidopsis thaliana, transgene SEQ ID NO 120. The following applies: Table 4, scale 0-100.

For the molecule `Cc1nn(-c2cc(NS(C)(=O)=O)c(Cl)cc2Cl)c(=O)n1C(F)F` [Sulfentrazone, sulfentrazone], the “Herbicide injury evaluation 14 days after herbicide treatment” value (from here on “Herbicide injury evaluation 14 days”) turned out to be 100 in assay [1] (SEQ ID NO 121 G, 280 g ai/ha + 1% MSO); 100 in assay [1] (SEQ ID NO 121 G, 560 g ai/ha + 1% MSO); 100 in assay [1] (SEQ ID NO 121 G, 1120 g ai/ha + 1% MSO); 100 in assay [1] (SEQ ID NO 121 H, 280 g ai/ha + 1% MSO); 100 in assay [1] (SEQ ID NO 121 H, 560 g ai/ha + 1% MSO); 100 in assay [1] (SEQ ID NO 121 H, 1120 g ai/ha + 1% MSO). Further, the “Herbicide injury evaluation 14 days” value is reported as 73 in assay [2] (SEQ ID NO 128 D, 280 g ai/ha + 1% MSO); 83 in assay [2] (SEQ ID NO 128 D, 560 g ai/ha + 1% MSO); 95 in assay [2] (SEQ ID NO 128 D, 1120 g ai/ha + 1% MSO); 70 in assay [2] (SEQ ID NO 128 E, 280 g ai/ha + 1% MSO); 93 in assay [2] (SEQ ID NO 128 E, 560 g ai/ha + 1% MSO); 95 in assay [2] (SEQ ID NO 128 E, 1120 g ai/ha + 1% MSO). In addition, the “Herbicide injury evaluation 14 days” value in assay [3] (Table 3, SEQ ID NO 118 Q, 280 g ai/ha + 1% MSO) came out at 25; in assay [3] (Table 3, SEQ ID NO 118 Q, 560 g ai/ha + 1% MSO), 40; in assay [3] (Table 3, SEQ ID NO 118 Q, 1120 g ai/ha + 1% MSO), 48; in assay [3] (Table 3, SEQ ID NO 118 R, 280 g ai/ha + 1% MSO), 15; in assay [3] (Table 3, SEQ ID NO 118 R, 560 g ai/ha + 1% MSO), 18; in assay [3] (Table 3, SEQ ID NO 118 R, 1120 g ai/ha + 1% MSO), 40. In addition, the “Herbicide injury evaluation 14 days” value in assay [4] (Table 3, 280 g ai/ha + 1% MSO) is 100; in assay [4] (Table 3, 560 g ai/ha + 1% MSO) it was 100; in assay [4] (Table 3, 1120 g ai/ha + 1% MSO), 100; in assay [5] (SEQ ID NO 117 C, 280 g ai/ha + 1% MSO), 83; in assay [5] (SEQ ID NO 117 C, 560 g ai/ha + 1% MSO) it was 99; in assay [5] (SEQ ID NO 117 C, 1120 g ai/ha + 1% MSO), 98. Also, the “Herbicide injury evaluation 14 days” value in assay [5] (SEQ ID NO 117 I, 280 g ai/ha + 1% MSO) was 89; in assay [5] (SEQ ID NO 117 I, 560 g ai/ha + 1% MSO) it was 85; in assay [5] (SEQ ID NO 117 I, 1120 g ai/ha + 1% MSO), 98.
`CCOC(=O)COc1ncccc1Oc1cc(-n2c(=O)cc(C(F)(F)F)n(C)c2=O)c(F)cc1Cl` [S3100, ethyl [3-[2-chloro-4-fluoro-5-(1-methyl-6-trifluoromethyl-2,4-dioxo-1,2,3,4-tetrahydropyrimidin-3-yl)phenoxy]-2-pyridyloxy]acetate]: the “Herbicide injury evaluation 14 days” value is 75 in assay [6] (SEQ ID NO 120 J, 50 g ai/ha + 1% MSO); 95 in assay [6] (SEQ ID NO 120 J, 100 g ai/ha + 1% MSO); 80 in assay [6] (SEQ ID NO 120 J, 200 g ai/ha + 1% MSO); 97 in assay [6] (SEQ ID NO 120 M, 50 g ai/ha + 1% MSO); 85 in assay [6] (SEQ ID NO 120 M, 100 g ai/ha + 1% MSO); 89 in assay [6] (SEQ ID NO 120 M, 200 g ai/ha + 1% MSO). In addition, the “Herbicide injury evaluation 14 days” value was 65 in assay [3] (Table 4, SEQ ID NO 118 Q, 50 g ai/ha + 1% MSO); 65 in assay [3] (Table 4, SEQ ID NO 118 Q, 100 g ai/ha + 1% MSO); 65 in assay [3] (Table 4, SEQ ID NO 118 Q, 200 g ai/ha + 1% MSO); 60 in assay [3] (Table 4, SEQ ID NO 118 R, 50 g ai/ha + 1% MSO); 63 in assay [3] (Table 4, SEQ ID NO 118 R, 100 g ai/ha + 1% MSO); 53 in assay [3] (Table 4, SEQ ID NO 118 R, 200 g ai/ha + 1% MSO). The “Herbicide injury evaluation 14 days” value in assay [4] (Table 4, 50 g ai/ha + 1% MSO) is recorded as 100; in assay [4] (Table 4, 100 g ai/ha + 1% MSO), 100; in assay [4] (Table 4, 200 g ai/ha + 1% MSO) it was 100.
